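Values below derive from 48-hour exposures of cells grown in 96-well plates, with endpoints linearly interpolated between the two concentrations bracketing the appropriate inhibition level. TGI is the concentration that stops growth completely.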
Experiments:
Assay in all cases: growth of human tumour cells (NCI), 48 h
COLO 205 colon = tested on: COLO 205 colon
HL-60(TB) leukemia = tested on: HL-60(TB) leukemia
HT29 colon = tested on: HT29 colon
LOX IMVI melanoma = tested on: LOX IMVI melanoma
MOLT-4 leukemia = tested on: MOLT-4 leukemia
NCI/ADR-RES ovarian = tested on: NCI/ADR-RES ovarian
OVCAR-4 ovarian = tested on: OVCAR-4 ovarian
OVCAR-5 ovarian = tested on: OVCAR-5 ovarian
SF-268 CNS = tested on: SF-268 CNS
SF-539 CNS = tested on: SF-539 CNS
SK-OV-3 ovarian = tested on: SK-OV-3 ovarian
SNB-75 CNS = tested on: SNB-75 CNS
SW-620 colon = tested on: SW-620 colon
TK-10 renal = tested on: TK-10 renal
U251 CNS = tested on: U251 CNS
NCI-H226 lung = tested on: NCI-H226 lung
RXF 393 renal = tested on: RXF 393 renal
SK-MEL-2 melanoma = tested on: SK-MEL-2 melanoma
CAKI-1 renal = tested on: CAKI-1 renal

Structure (SMILES)	TGI (COLO 205 colon)	TGI (HL-60(TB) leukemia)	TGI (HT29 colon)	TGI (LOX IMVI melanoma)	TGI (MOLT-4 leukemia)	TGI (NCI/ADR-RES ovarian)	TGI (OVCAR-4 ovarian)	TGI (OVCAR-5 ovarian)	TGI (SF-268 CNS)	TGI (SF-539 CNS)	TGI (SK-OV-3 ovarian)	TGI (SNB-75 CNS)	TGI (SW-620 colon)	TGI (TK-10 renal)	TGI (U251 CNS)	TGI (NCI-H226 lung)	TGI (RXF 393 renal)	TGI (SK-MEL-2 melanoma)	TGI (CAKI-1 renal)
C1CC[C@H]2SSC3CCCC[C@H]3SSC2C1 (stereo not given in full)	> 100 µM	> 100 µM	> 100 µM	> 100 µM	> 100 µM	> 100 µM	> 100 µM	> 100 µM	> 100 µM	> 100 µM	> 100 µM	> 100 µM	> 100 µM	> 100 µM	> 100 µM				
COC(=O)C(C/C=C(\C)c1ccc(Cl)cc1)C(C)=O (stereo not given)	> 100 µM	38.3 µM	> 77.1 µM	28.1 µM	41.2 µM	63.1 µM	> 100 µM	> 90.3 µM	> 100 µM	> 100 µM	> 100 µM	> 94.6 µM	> 100 µM		> 86.6 µM	> 91 µM	> 95.9 µM	32.9 µM	
COc1cc(C2C(Cl)C(=O)N2NC(=O)c2ccc(N)cc2)cc(Br)c1O (stereo not given)	33.4 µM	27.6 µM	41.9 µM	11 µM	20 µM		35.1 µM	38.8 µM	19.7 µM	35.2 µM	73 µM	33.3 µM	35.1 µM	32.5 µM	10.1 µM	46.2 µM		32.3 µM	30.7 µM
CC(=O)Nc1nnc(S(C)(=O)=O)s1	> 100 µM	> 100 µM	> 100 µM		> 100 µM	> 100 µM		> 100 µM	> 100 µM	> 100 µM			> 100 µM	> 100 µM	> 100 µM	> 100 µM	> 100 µM		
Ic1cc2c(cc1C1SCCCS1)OCO2	> 100 µM	> 100 µM	> 100 µM	> 100 µM	> 100 µM		> 100 µM	> 100 µM	> 100 µM	> 100 µM	> 100 µM	> 100 µM	> 100 µM	> 100 µM	> 100 µM	> 100 µM	> 100 µM	> 100 µM	> 100 µM
CC(C)(C)C1=CC(=C2C(=O)C(=O)c3ccccc3C2=O)C=C(C(C)(C)C)C1=O	> 100 µM	> 100 µM	> 100 µM	> 100 µM				> 100 µM	> 100 µM	> 100 µM	> 100 µM	> 100 µM	> 100 µM	> 100 µM	> 100 µM			> 100 µM	> 100 µM
CC(=O)OC1COC(N2C(=O)C(=O)c3cc(Br)ccc32)C(OC(C)=O)C1OC(C)=O (stereo not given)	> 100 µM		> 100 µM	> 100 µM	> 100 µM		> 100 µM		> 100 µM	> 100 µM	> 100 µM	> 100 µM	> 100 µM	> 100 µM	> 100 µM	> 100 µM	> 100 µM	> 100 µM	> 100 µM

— PubChem BioAssay (NCI)
